Test results taken from patent US20060074243A1, “Hydroxamic acid and amide compounds and their use as protease inhibitors” (Pharmacia Corporation, priority 2002, published 2006).

Experiments:
[1] = molecular target: T1, Human recombinant MMP-2 (Homo sapiens, UniProt P08253); assay: In vitro MMP inhibition analysis (fluorogenic peptide substrate cleavage), Ki; assay type: biochemical
T1 construct: made in house; host or cells: MMP-2-transfected p2AHT2 cells
T1 sequence (P08253 110-660): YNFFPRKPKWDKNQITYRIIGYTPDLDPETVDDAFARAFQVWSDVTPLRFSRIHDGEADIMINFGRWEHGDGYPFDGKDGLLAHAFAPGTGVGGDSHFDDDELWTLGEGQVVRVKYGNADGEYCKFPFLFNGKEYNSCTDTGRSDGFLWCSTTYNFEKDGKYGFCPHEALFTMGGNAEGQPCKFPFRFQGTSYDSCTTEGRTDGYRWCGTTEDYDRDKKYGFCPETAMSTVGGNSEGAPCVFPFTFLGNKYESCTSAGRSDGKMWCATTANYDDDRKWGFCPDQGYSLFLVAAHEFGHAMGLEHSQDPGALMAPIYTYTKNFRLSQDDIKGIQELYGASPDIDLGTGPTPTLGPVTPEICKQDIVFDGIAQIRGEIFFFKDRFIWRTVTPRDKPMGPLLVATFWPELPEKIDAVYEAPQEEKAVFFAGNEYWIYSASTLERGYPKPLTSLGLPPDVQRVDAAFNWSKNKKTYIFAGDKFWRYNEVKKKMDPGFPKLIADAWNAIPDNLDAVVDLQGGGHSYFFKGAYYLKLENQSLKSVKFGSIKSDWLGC
Experimental: (§1) Several compounds and salts were analyzed in an in vitro assay to determine their ability to inhibit the MMP cleavage of peptide substrates. Inhibition constant (Ki) were calculated from the assayed compound-MMP interactions.
(§2) Human recombinant MMP-1, MMP-2, MMP-9, MMP-13, and MMP-14 were used in this assay. All enzymes were prepared in Assignee's laboratories following usual laboratory procedures. Protocols for the preparation and use of these enzymes are available in the scientific literature. See, e.g., Enzyme Nomenclature (Academic Press, San Diego, Calif., 1992) (and the citations therein). See also, Frije et al., J. Biol. Chem., 26(24), 16766-73 (1994).
The MMP-2 proenzyme was purified by gelatin Sepharose chromatography from MMP-2-transfected p2AHT2 cells provided by Dr. Gregory Goldberg of Washington University (St. Louis, Mo.).
(§3) All MMPs were activated using 4-aminophenylmercuric acetate (“APMA”, Sigma Chemical, St. Louis, Mo.) or trypsin. MMP-9 also was activated using human recombinant MMP-3 (purified in Assignee's laboratory following standard cloning and purification techniques).
(§4) The following fluorogenic, methoxycoumarin-containing polypeptide substrate (I) was used in the MMP inhibition assays: MCA-ArgProLeuGlyLeuDpaAlaArgGluArgNH2 (I) “MCA” is 7-methoxycoumarin-4-yl acetyl. Substrate (I) was prepared Assignee's laboratory. In the absence of MMP inhibitory activity, the substrate is cleaved at the Gly-Leu peptide bond. This cleavage separates the highly fluorogenic peptide from the 2,4-dinitrophenyl quencher, thus resulting in increase of fluorescent intensity.
(§5) The stock solutions of the assayed compounds and salts were prepared in […] (DMSO). These stock solutions were diluted in Buffer A (100 mM Tris-HCl, 100 mM NaCl, 10 mM CaCl2, 0.05% polyoxyethylene 23 lauryl ether, pH 7.5) to obtain solutions with different compound concentrations, i.e., assay solutions with different concentrations of the assayed […] compound. The experiment controls contained the same amount of Buffer A/DMSO as the assayed sample, but contained none of the tested compound or salt.
(§6) The assays from which the Ki determinations were made were performed as follows. The assayed compound samples were incubated in separate wells of untreated white polystyrene plates (Nunc Nalgene International, Rochester, N.Y.), and analyzed on a Tecan SpectraFlour Plus plate reader. The excitation wavelength was 330 nm, and the emission wavelength—420 nm. All samples (assayed compounds and controls) were incubated in separate plate wells at room temperature for 1 hr in the presence of 4 μM of MMP substrate (I). In the absence of MMP inhibitory activity, substrate (I) was cleaved at the Gly-Leu bond resulting in an increase of relative fluorescence. Inhibition was observed as a reduced rate of this increase in relative fluorescence. […] This protocol is a modification of method by Knight et al., FEBS Lett., 296(3), 263-266 (1992). Apparent inhibitory constants were determined by non-linear regression of reaction velocity as a function of inhibitor and enzyme concentration using Morrison's equation, as described by Kuzmic, Anal. Biochem. 286, 45-50 (2000). Modifications were made in the non-linear regression method to allow a common control reaction rate and effective enzyme concentration to be shared between all dose-response relationships on a given assay plate. Since the substrate concentration was chosen to be at or below the Km, the apparent Ki's from this analysis were reported as Ki's without correction for the influence of substrate.
The above protocols were used to determine Ki constants for the compounds in Examples 2-35 above. All Ki values in Table 1 are given in nM units.

[2] = molecular target: T2, Human recombinant MMP-13 (Homo sapiens, UniProt P45452); assay: as above; assay type: biochemical
T2 construct: made in house; host or cells: baculovirus / insect cells
Experimental: as §1, §2
The MMP-13 was obtained as a proenzyme from a full-length cDNA clone using baculovirus, as described by V. A. Luckow, “Insect Cell Expression Technology,” Protein Engineering: Principles and Practice, pp. 183-218 (edited by J. L. Cleland et al., Wiley-Liss, Inc., 1996). The expressed proenzyme was first purified over a heparin agarose column, and then over a chelating zinc chloride column. The proenzyme was then activated by APMA for use in the assay. Further details on baculovirus expression systems may be found in, for example, Luckow et al., J. Virol., 67, 4566-79 (1993). See also, O'Reilly et al, Baculovirus Expression Vectors: A Laboratory Manual (W.H. Freeman and Co., New York, N.Y., 1992). See also, King et al., The Baculovirus Expression System: A Laboratory Guide (Chapman & Hall, London, England, 1992).
as §3, §4, §5
as §6, with “Modifications were made in the non-linear regression method to allow a common control reaction rate and effective enzyme concentration to be shared between all dose-response relationships on a given assay plate. Since the substrate concentration was chosen to be at or below the Km, the apparent Ki's from this analysis were reported as Ki's without correction for the influence of substrate.” left out

Ki ([1]; Table 1) [nM] | Ki ([2]; Table 1) [nM] | Ki ([1]; Table 2) [nM] | Ki ([2]; Table 2) [nM] | Compound
0.46 | 0.06 |  |  | CCN1CCC(C(=O)NO)(S(=O)(=O)c2ccc(-c3ccc(CCCC(F)(F)F)cn3)cc2)CC1 [Example 53]
 |  | 11.9 | 2.06 | O=C(NO)C1(S(=O)(=O)c2ccc(-c3ccc(CCC(F)(C(F)(F)F)C(F)(F)F)cn3)cc2)CCOCC1 [Example 133]
0.322 | 0.082 |  |  | O=C(NO)C1(S(=O)(=O)c2ccc(-c3ccc(CCCC(F)(F)F)cn3)cc2)CCOCC1 [Example 69]
2.36 | 0.71 |  |  | O=C(NO)C1(S(=O)(=O)c2ccc(-c3cnc(CCC4CC4)cn3)cc2)CCOCC1 [Example 49]
 |  | 0.94 | 0.383 | O=C(NO)C1(S(=O)(=O)c2ccc(-c3ccc(CCC4CCCCC4)cn3)cc2)CCOCC1 [Example 129]
 |  | 0.176 | 0.058 | CCCCc1ccc(-c2ccc(S(=O)(=O)C3(C(=O)NO)CCN(CC)CC3)cc2)nc1 [Example 140]
0.952 | 0.27 |  |  | COCCN1CCC(C(=O)NO)(S(=O)(=O)c2ccc(-c3cnc(CCC(C)(F)F)cn3)cc2)CC1 [Example 65]
 |  | 0.1 | 0.02 | O=CN1CCC(C(=O)NO)(S(=O)(=O)c2ccc(-c3ccc(CCCC(F)(F)F)cn3)cc2)CC1 [Example 159]
 |  | 0.13 | 0.12 | O=C(NO)C1(S(=O)(=O)c2ccc(-c3cnc(OCC(F)(F)C(F)(F)F)cn3)cc2)CCOCC1 [Example 154]
0.88 | 0.45 |  |  | O=C(NO)C1(S(=O)(=O)c2ccc(-c3cnc(CCC(F)(F)F)cn3)cc2)CCOCC1 [Example 62]
 |  | 14.2 | 1.27 | CC(C)(C)CCNc1cnc(-c2ccc(S(=O)(=O)C3(C(=O)NO)CCOCC3)cc2)cn1 [Example 130]
 |  | 0.76 | 0.45 | CCN1CCC(C(=O)NO)(S(=O)(=O)c2ccc(-c3noc(-c4ccc(C(F)(F)F)cc4)n3)cc2)CC1 [Example 149]
 |  | 0.041 | 0.012 | O=C(NO)C1(S(=O)(=O)c2ccc(-c3ccc(-c4ccncc4)cc3)cc2)CCOCC1 [Example 141]
 |  | 0.218 | 0.571 | O=C(NO)C1(S(=O)(=O)c2ccc(-c3cnc(N4CCCC4)cn3)cc2)CCOCC1 [Example 138]
0.21 | 0.11 |  |  | COCCN1CCC(C(=O)NO)(S(=O)(=O)c2ccc(-c3ccc(CCC(F)(F)C(F)(F)F)cc3)cc2)CC1 [Example 46]
0.79 | 0.23 |  |  | CC(F)(F)CCc1cnc(-c2ccc(S(=O)(=O)C3(C(=O)NO)CCN(C4CC4)CC3)cc2)cn1 [Example 66]
0.15 | 0.04 |  |  | O=C(NO)C1(S(=O)(=O)c2ccc(-c3ccc(CCCC(F)F)cc3)cc2)CCOCC1 [Example 57]

Ki ([1]; Table 1) [nM] | Ki ([2]; Table 1) [nM] | Ki ([1]; Table 2) [nM] | Ki ([2]; Table 2) [nM] | Compound
 |  | 0.304 | 0.102 | O=C(NO)C1(S(=O)(=O)c2ccc(-c3ccc(OCCCC(F)(F)F)cc3)cc2)CCOCC1 [Example 74]
 |  | 2.72 | 0.17 | O=C(NO)C1(S(=O)(=O)c2ccc(-c3ncc(CCC(F)(F)C(F)(F)F)cn3)cc2)CCOCC1 [Example 137]
 |  | 46.8 | 4.86 | O=C(NO)C1(S(=O)(=O)c2ccc(-c3ncccn3)cc2)CCOCC1 [Example 121]
0.16 | 0.05 |  |  | O=C(NO)C1(S(=O)(=O)c2ccc(-c3ccc(CCCC(F)(F)F)cn3)cc2)CCN(C2CC2)CC1 [Example 51]
0.009 | 0.011 |  |  | COCCN1CCC(C(=O)NO)(S(=O)(=O)c2ccc(-c3ccc(OC(F)(F)C(F)F)cc3)cc2)CC1 [Example 39]
 |  | 3.11 | 0.95 | O=C(NO)C1(S(=O)(=O)c2ccc(-c3cnc(C4CCCC4)cn3)cc2)CCOCC1 [Example 162]
0.339 | 0.072 |  |  | O=C(NO)C1(S(=O)(=O)c2ccc(-c3ccc(CCCC(F)(F)F)cc3)cc2)CCOCC1 [Example 42]
 |  | 0.15 | 0.05 | O=C(NO)C1(S(=O)(=O)c2ccc(-c3ccc(-c4ccccc4)cn3)cc2)CCN(C2CC2)CC1 [Example 151]
 |  | 1.13 | 1.76 | O=C(NO)C1(S(=O)(=O)c2ccc(-c3noc(-c4ccc(F)cc4)n3)cc2)CCOCC1 [Example 134]
 |  | 5.67 | 1.56 | CCc1cnc(-c2ccc(S(=O)(=O)C3(C(=O)NO)CCOCC3)cc2)nc1 [Example 122]
1.84 | 0.221 |  |  | CC(C)(C)N1CCC(C(=O)NO)(S(=O)(=O)c2ccc(-c3ccc(CCCC(F)(F)F)cc3)cc2)CC1 [Example 48]
0.586 | 0.222 |  |  | O=C(NO)C1(S(=O)(=O)c2ccc(-c3cnc(CCC(F)(F)C(F)(F)F)cn3)cc2)CCOCC1 [Example 55]
 |  | 0.3 | 0.15 | CN1CCC(C(=O)NO)(S(=O)(=O)c2ccc(-c3ccc(OC(F)(F)C(F)F)cc3)cc2)CC1 [Example 146]
 |  | 0.37 | 0.12 | O=C(NO)C1(S(=O)(=O)c2ccc(-c3ccc(-c4ccccc4F)cn3)cc2)CCN(C2CC2)CC1 [Example 150]
 |  | 0.037 | 0.007 | O=C(NO)C1(S(=O)(=O)c2ccc(-c3ccc(OCCCC(F)(F)F)cn3)cc2)CCOCC1 [Example 144]
 |  | 0.147 | 0.03 | O=C(NO)C1(S(=O)(=O)c2ccc(-c3ccc(-n4ccnc4)cc3)cc2)CCOCC1 [Example 127]
 |  | 0.26 | 0.15 | O=C(NO)C1(S(=O)(=O)c2ccc(-c3ccc(-c4ccccc4)cc3)cc2)CCN(C2CC2)CC1 [Example 153]
